Source: patent US20170158702A1, “MULTIVALENT RAS BINDING COMPOUNDS” (KYRAS THERAPEUTICS, INC., priority 2015, published 2017)
Structures can show the parent of a compound that is named as a salt.

Columns and labels:
Type in all cases: cell-based
NCI-H460 = experiment: Viability assay with NCI-H460 (CellTiter-Glo cytotoxicity assay, 72 h); settings: NCI-H460 cell line, 72 h after compounds addition
Outline: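 NCI-H460 cells, RPMI 1640 + 10% FBS, seeded 1200/well and adhered overnight, then exposed to compounds at 9 points, 2-fold dilution, in triplicate, 0.5% DMSO final. Cellular ATP measured by CellTiter-Glo luminescence 72 h after addition.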

MIA PaCa-2 = experiment: Viability assay with MIA PaCa-2; settings: MIA PaCa-2, viability assay per Example 57
Outline: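 MIA PaCa-2 cells were seeded at 1200/well, allowed to adhere overnight, then treated in triplicate with 9-point 2-fold compound dilutions at 0.5% final DMSO. Viability was measured as cellular ATP by CellTiter-Glo luminescence 72 h after compound addition.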

NCI-H2023 = experiment: Viability assay with NCI-H2023; settings: NCI-H2023, viability assay per Example 57
Procedure: NCI-H460 (Epithelial lung tissue; carcinoma; large cell lung cancer) were cultured in RPMI Medium 1640 (Invitrogen-22400105) supplemented with 10% fetal bovine serum (FBS; Invitrogen-10099141). All the cell lines were maintained in a humidified incubator at 37° C. with 5% CO2. Cell culture media and supplements were purchased from Invitrogen, and tissue culture flasks were purchased from Corning, 96-well plates were purchased from Greiner. CellTiter-Glo Luminescent Cell Viability Assay kits were purchased from Promega (Promega-G7573), cells counter Vi-Cell was purchased from Beckman, D300e digital dispenser was purchased from Tecan, detection instrument Envision was purchased from PerkinElmer.
Paclitaxel was purchased from SELLECK, test compounds, such as any one of the compounds disclosed herein, attained solubility in DMSO and when diluted into culture media. DMSO, solutions containing the test compounds, and culture media were warmed to 37° C. or room temperature for the solution preparation and dilutions.
NCI-H460 Cell line were seeded in 96-well plates (1200/well) and allowed to adhere to overnight (100 uL/well), for drug treatments with 2 fold dilution, 9 dose points, triplicates or vehicle control, compound stock solutions were prepared in DMSO and use D300e digital dispenser to add compounds to the wells to give the indicated final drug concentrations. Final DMSO concentration was 0.5%. Cellular ATP concentrations were assessed by using the CellTiter-Glo Cell Viability Assay as per the manufacturer's instructions 72 h after compounds addition. Additional cells lines were assayed with any one of the compounds disclosed herein according to the procedures described for the viability assay with NCI-H460.
A viability assay with NCI-H2023 (stage 3A, adenocarcinoma; non-small cell lung cancer) was performed with compounds listed in Table 16 according to the procedures described in Example 57.

HT-29 = experiment: Viability assay with HT-29; settings: HT-29, viability assay per Example 57
Outline: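 Cells seeded 1200/well, adhered overnight, then treated with 9-point 2-fold compound dilutions in triplicate (0.5% final DMSO). Viability taken as cellular ATP by CellTiter-Glo luminescence 72 h after compound addition.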

SMILES	EC50 (NCI-H460)	EC50 (MIA PaCa-2)	EC50 (NCI-H2023)	EC50 (HT-29)
Cc1ccc(-c2cn(CCCN)c3ccc(CN4CCN(Cc5c(Cl)cccc5Cl)CC4)cc23)cc1 [C51; HCl]	≤ 5 µM	≤ 5 µM	≤ 5 µM	
NCCNCCCn1cc(-c2ccc(OC(F)(F)F)cc2)c2cc(CN3CCN(Cc4c(Cl)cccc4Cl)CC3)ccc21 [C26; HCl]	≤ 5 µM	≤ 5 µM	≤ 5 µM	
N#Cc1ccc(-c2cn(CCCN)c3ccc(CN4CCN(Cc5c(Cl)cccc5Cl)CC4)cc23)cc1 [C33; HCl]	≤ 5 µM	≤ 5 µM	≤ 5 µM	
NCCCn1cc(-c2ccc(OC(F)(F)F)cc2CN)c2cc(CN3CCCC(NCC(F)(F)F)C3)ccc21 (stereo not drawn) [C276; HCl]	≤ 5 µM	5 to 10 µM		5 to 10 µM
NCCCn1cc(-c2ccc(OC(F)(F)F)cc2N)c2cc(CN3CCN(Cc4ccccc4Cl)CC3)ccc21 [C239; Formic Acid]	≤ 5 µM	≤ 5 µM		≤ 5 µM
FC(F)(F)Oc1ccc(-c2cn(CC3CCNCC3)c3ccc(CN4CCN(Cc5ccccc5Cl)CC4)cc23)cc1 [C171; HCl]	≤ 5 µM	≤ 5 µM		≤ 5 µM
COc1cc(NC2CCN(Cc3ccc4c(c3)c(-c3ccc(OC(F)(F)F)cc3CN)cn4CCCN)CC2)cc(OC)c1 [C278; HCl]	≤ 5 µM	≤ 5 µM		≤ 5 µM
Nc1ccc(Cn2cc(-c3ccc(OC(F)(F)F)cc3)c3cc(CN4CCN(Cc5ccccc5Cl)CC4)ccc32)cn1 [C232; Formic Acid]	≤ 5 µM	≤ 5 µM		≤ 5 µM
CCCCn1cc(-c2ccc(OC(F)(F)F)cc2CN)c2cc(CN3CCN(Cc4ccccc4Cl)CC3)ccc21 [C227; HCl]	≤ 5 µM	≤ 5 µM		≤ 5 µM
NCCCn1cc(-c2ccc(OC(F)(F)F)cc2CN)c2cc(CN3CCCCC3)ccc21 [C260; HCl]	5 to 10 µM	≤ 5 µM		5 to 10 µM
COc1cccc(CC2CN(Cc3ccc4c(c3)c(-c3ccc(OC(F)(F)F)cc3CN)cn4CCCN)C2)c1 [C279; Formic Acid]	≤ 5 µM	≤ 5 µM		≤ 5 µM
NCCCn1cc(-c2ccc(OC(F)(F)F)cc2)c2cc(Nc3ccc(Nc4ccccc4Cl)nc3)ccc21 [C246; Formic Acid]	5 to 10 µM	5 to 10 µM		10 to 30 µM
Cc1ccc(-c2cn(CCCN)c3ccc(CC4CCN(Cc5ccccc5Cl)CC4)cc23)c(CN)c1 [C269; Formic Acid]	≤ 5 µM	≤ 5 µM		≤ 5 µM
NCCCn1cc(-c2ccc(OC(F)(F)F)cc2)c2cc(NC3CCN(Cc4ccccc4Cl)CC3)ccc21 [C129; HCl]	≤ 5 µM	≤ 5 µM		≤ 5 µM
FC(F)(F)Oc1ccc(-c2cn(CCCCNc3ccccn3)c3ccc(CN4CCN(Cc5ccccc5Cl)CC4)cc23)cc1 [C202; Formic Acid]	≤ 5 µM	5 to 10 µM		5 to 10 µM
FC(F)(F)Oc1ccc(-n2cc(C3CCNCC3)c3cc(CN4CCN(Cc5ccccc5Cl)CC4)ccc32)cc1 [C217; HCl]	≤ 5 µM	≤ 5 µM		≤ 5 µM
NCCCn1cc(-c2ccc(OC(F)(F)F)cc2CN)c2cc(CN3CCC4(CC3)CCN(Cc3ccccc3Cl)C4)ccc21 [C249; Formic Acid]	≤ 5 µM	≤ 5 µM		≤ 5 µM
COc1cccc(NC2CCN(Cc3ccc4c(c3)c(-c3ccc(OC(F)(F)F)cc3CN)cn4CCCN)CC2)c1 [C277; HCl]	≤ 5 µM	≤ 5 µM		≤ 5 µM
FC(F)(F)Oc1ccc(-c2cn(C3CCNCC3)c3ccc(CN4CCN(Cc5ccccc5Cl)CC4)cc23)cc1 [C170; HCl]	≤ 5 µM	≤ 5 µM		≤ 5 µM
NCCCn1cc(-c2ccc(OC(F)(F)F)cc2CN)c2cc(CN3CCOCC3)ccc21 [C265; HCl]	≤ 5 µM	≤ 5 µM		≤ 5 µM
NCCCn1cc(-c2ccc(OC(F)(F)F)cc2)c2cc(CN3CCC(CC(F)(F)F)CC3)ccc21 [C130; HCl]	≤ 5 µM	≤ 5 µM		≤ 5 µM
CCC1CCN(Cc2ccc3c(c2)c(-c2ccc(OC(F)(F)F)cc2CN)cn3CCCN)CC1 [C261; HCl]	≤ 5 µM	≤ 5 µM		≤ 5 µM

SMILES	EC50 (NCI-H460)	EC50 (MIA PaCa-2)	EC50 (NCI-H2023)	EC50 (HT-29)
NCCCn1cc(-c2ccc(OC(F)(F)F)cc2CN)c2cc(CN3CCC(Cc4ccccc4Cl)CC3)ccc21 [C221; HCl]	≤ 5 µM	≤ 5 µM		≤ 5 µM
NCCCn1cc(-c2ccc(OC(F)(F)F)cc2CN)c2cc(CN3CCC4(CCCN(Cc5ccccc5Cl)C4)CC3)ccc21 [C253; HCl]	≤ 5 µM	≤ 5 µM		≤ 5 µM
CCC1CCN(Cc2ccc3c(c2)c(-c2ccc(OC)cc2CN)cn3CCCN)CC1 [C255; HCl]	5 to 10 µM	≤ 5 µM		5 to 10 µM
COc1cccc(Cl)c1-c1cn(CCCN)c2ccc(CN3CCN(Cc4c(Cl)cccc4Cl)CC3)cc12 [C154; HCl]	≤ 5 µM	≤ 5 µM		≤ 5 µM
CC1CCN(Cc2ccc3c(c2)c(-c2ccc(OC(F)(F)F)cc2CN)cn3CCCN)CC1 [C257; HCl]	≤ 5 µM	≤ 5 µM		≤ 5 µM
NCCCn1cc(-c2ccc(OC(F)(F)F)cc2)c2c(CN3CCN(CCOc4ccc(Cl)cc4)CC3)cccc21 [C144; HCl]	≤ 5 µM	≤ 5 µM		≤ 5 µM
NCc1ccc(-n2cc(-c3ccc(OC(F)(F)F)cc3)c3cc(CN4CCN(Cc5ccccc5Cl)CC4)ccc32)cc1 [C149; Formic Acid]	≤ 5 µM	≤ 5 µM		≤ 5 µM
NCCCn1cc(-c2cccc(C(N)=O)c2)c2cc(CN3CCN(Cc4ccccc4Cl)CC3)ccc21 [C179; HCl]	≤ 5 µM	≤ 5 µM		≤ 5 µM
NCCCn1cc(-c2ccc(C(N)=O)cc2)c2cc(CN3CCN(Cc4ccccc4Cl)CC3)ccc21 [C180; HCl]	≤ 5 µM	≤ 5 µM		≤ 5 µM
COc1cccc(CC2(CO)CCN(Cc3ccc4c(c3)c(-c3ccc(OC(F)(F)F)cc3CN)cn4CCCN)CC2)c1 [C294; HCl]	≤ 5 µM	≤ 5 µM		≤ 5 µM
NCCCn1cc(-c2ccc(OC(F)(F)F)cc2CN)c2cc(CN3CCC(O)CC3)ccc21 [C290; HCl]	5 to 10 µM	5 to 10 µM		5 to 10 µM
Cn1cc(-c2cn(CCCN)c3ccc(CN4CCN(Cc5ccccc5Cl)CC4)cc23)cn1 [C191; HCl]	5 to 10 µM	5 to 10 µM		5 to 10 µM
COc1cc(CN(C)CCN(C)Cc2ccc3c(c2)c(-c2ccc(OC(F)(F)F)cc2CN)cn3CCCN)cc(OC)c1 [C297; HCl]	≤ 5 µM	≤ 5 µM		≤ 5 µM
NCCCn1cc(-c2ccc(OC(F)(F)F)cc2)c2cc(CN3CCC(Oc4ccc(Cl)cc4)CC3)ccc21 [C216; HCl]	≤ 5 µM	≤ 5 µM		≤ 5 µM
NC1CCC(n2cc(-c3ccc(OC(F)(F)F)cc3)c3cc(CN4CCN(Cc5ccccc5Cl)CC4)ccc32)CC1 (stereo not drawn) [C212; HCl]	≤ 5 µM	≤ 5 µM		≤ 5 µM
Cc1ccc(CN2CCN(Cc3ccc4c(c3)c(-c3ccc(OC(F)(F)F)cc3)cn4CCCN)CC2)cc1 [C146; HCl]	≤ 5 µM	≤ 5 µM		≤ 5 µM
NCCCn1cc(-c2ccc(OC(F)(F)F)cc2CN)c2cc(CN3CCN(Cc4cccc(OC(F)(F)F)c4)CC3)ccc21 [C267; HCl]	≤ 5 µM	≤ 5 µM		≤ 5 µM
NC1CCC(n2cc(-c3ccc(OC(F)(F)F)cc3)c3cc(CN4CCN(Cc5ccccc5Cl)CC4)ccc32)C1 (stereo not drawn) [C134; HCl]	≤ 5 µM	≤ 5 µM		≤ 5 µM
NCCCn1cc(-c2ccc(OC(F)(F)F)cc2)c2c(CN3CCN(CCc4ccccc4Cl)CC3)cccc21 [C147; HCl]	≤ 5 µM	≤ 5 µM		≤ 5 µM
NCCCn1cc(-c2ccc(OC(F)(F)F)cc2)c2cc(CN3CCC(Oc4cccc(Cl)c4)CC3)ccc21 [C236; HCl]	≤ 5 µM	≤ 5 µM		≤ 5 µM
NCCCn1cc(-c2ccc(OC(F)(F)F)cc2CN)c2cc(S(=O)(=O)N3CCN(Cc4ccccc4Cl)CC3)ccc21 [C245; Formic Acid]	≤ 5 µM	≤ 5 µM		≤ 5 µM
